Where no end group is shown, it is not given here.
What was measured:
[1] = system: CD4+ T cell isolated from peripheral blood; test: IL-6 and IL-10 expression (ELISA) in CD4+ T cells treated with SP; assay type: cell-based, C57b1/6 mice; details: CD4+ T cell in T-cell activation media; SP as Example 1-(1); 4.5, 10, 24 hours; FIG. 2
Procedure: [The procedure below names another cell line; the source says it served here with some conditions changed.] Peripheral blood was collected from C57b1/6 mice (8 weeks, sex; male, n=5, Average Weight; 20 g), diluted doubly with PBS, carefully placed on Ficoll in a tube, and then centrifuged at 2200 rpm for 20 minutes. By centrifuging, from the bottom, an erythrocyte layer, a ficoll layer, a mononuclear cell layer, and a plasma layer were obtained in order. The mononuclear cell layer and plasma layer were isolated, excluding the erythrocyte layer and ficoll layer, and then washed one time with PBS. Then, the number of cells was counted; the cells with a concentration of 1×10^5/0.2 ml were seeded onto T-cell activation media (lymphocyte activation media; RPMI, 10% FBS, 100 μM 2-mercaptoetanol, 20 μg/ml ConA); then the cells were cultured at an incubator of 37° C.; and then culture supernatant was taken at 4.5 hours, 10 hours, and 24 hours. For SP-treated group, 10 nmole/kg of SP dissolved in a physiological saline was treated to T-cell activation media. […] After 30 minutes, 100 μl of stop codon was treated to stop the reaction; the optical density was measured at 450 nm; the amounts of cytokines were converted based on a protein conversion formula by a standard sample; and then the results were shown in FIG. 1. […]

[2] = system: hematopoietic stem cells in blood; test: Corneal epithelial burn model: HSC-CFU assay of blood cells; assay type: in vivo, New Zealand white rabbit; details: rabbit, alkali burn of cornea; 5 nmole/kg SP i.v. immediately and 24 hours after burning; without SP peak at five days; FIG. 5
Procedure: Ketalar (50 mg/ml, Yuhan Corporation) and Rompun (23.32 mg (Xylazine hydrochloride)/ml, Bayer Korea Corporation) were mixed in a rate of 2:1, and then total 900 μl (Ketalar 600 μl: Rompun 300 μl) was injected into muscles of rabbits (New Zealand white rabbit, Male, 2.5 kg, n=4). After the intramuscular injection, 300 μl (Ketalar 200 μl: Rompun 100 μl) of the same anesthetic drug was injected in the rabbit's ear vein.
A 6 mm paper disc fully wetted by 1N NaOH was contacted to a limbus part of rabbit's cornea for 10 seconds. After alkali burning, corneal epithelium was removed in a size of the paper disc. The rabbit's eyes were quickly washed with a physiological saline immediately after alkali burning. At the same time, 5 nmole/kg of SP dissolved in a physiological saline was intravenously injected, and then after 24 hours, was injected once more (immediately after burning and at 24 hours after burning). For the control, PBS with the same volume was injected (injection Volume: 1 ml).
Peripheral blood was collected from ear veins in 10 ml at one, three, five and seven days after alkali burning. […]
1×10^4 cells among the whole cells was used for HSC-CFU assay. […] The cells were cultured in the media for 2 weeks (5% CO2, 37° C.), the number of colonies was counted by using a microscope (Leica) and then the results were shown in FIG. 5.

[3] = system: inflammatory cells in blood; test: Radiation-irradiating model: CBC of inflammatory cells in blood; assay type: in vivo, C57b1/6 mice; details: mice, 8 Gy, 5 nmole/kg SP i.v. one day before and immediately after irradiation, 4.5 hours after irradiation, vs group without SP
Procedure: 5 nmole/kg of SP dissolved in a physiological saline was injected to a tail vein of C57b1/6 mice (8 weeks, sex; male, n=4, Average weight; 20 g) one day before irradiation and immediately after irradiation. The irradiation was performed at 8 Gy radiation in a Gamma lay radiation irradiator (^137Cs, Atomic Energy of Canada, Mississauga, Canada). The mice were sacrificed at 4.5 hours and one day after irradiation, and then the blood was collected. The part of the blood was used for analyzing CBC (Complete Blood Count) and the remaining blood was used to isolate serum and then analyze cytokines
200 μl of mouse's blood was taken at 4.5 hours and one day after 8 Gy radiation; it was added to a vial including a small amount of EDTA and then analyzed for CBC. […] It was confirmed that SP has an effect of inhibiting an increase of inflammatory cells caused by irradiation.

## Substance-P (RPKPQQFFGLM; not fully specified; ends and bridges not checked; UniProt P20366 58-68, looked up)
[1]
  expression level of IL-6 in culture supernatant: no difference
  expression of IL-10 in culture supernatant: increased
[2]
  number of HSC (HSC-CFU colonies) in blood: increased at early stage and then decreased immediately three days after injection
[3]; FIG. 7A
  leukocyte (White Blood Cell) in blood: decreased at least two times
[3]; FIG. 7B
  mononuclear cell in blood: decreased at least two times
[3]; FIG. 7C
  neutrophilic leukocyte in blood: decreased at least two times
[3]; FIG. 7D
  decrease of eosinocyte in blood: 30-40%

Source: US8575089B2, “Composition for preventing or treating inflammation” (University-Industry Cooperation Group of Kyung Hee, priority 2009, dated 2013)
